Among the data in US20250066344A1 (BRISTOL-MYERS SQUIBB COMPANY, priority 2021, published 2025) are first-phase pharmacokinetic half-life and EC50 values, retold here.

Test system in one data set: not given
Test: not given
The conditions noted are these: intravenous (IV) formulation; cited from earlier work.
Regarding Serelaxin, the first-phase pharmacokinetic half-life was 5.4 min.

For a further data set, the target named is T1, human RXFP1 (Homo sapiens, UniProt Q9HBX9).
T1 construct: expressed in transfected cells
T1 sequence (Q9HBX9 1-757): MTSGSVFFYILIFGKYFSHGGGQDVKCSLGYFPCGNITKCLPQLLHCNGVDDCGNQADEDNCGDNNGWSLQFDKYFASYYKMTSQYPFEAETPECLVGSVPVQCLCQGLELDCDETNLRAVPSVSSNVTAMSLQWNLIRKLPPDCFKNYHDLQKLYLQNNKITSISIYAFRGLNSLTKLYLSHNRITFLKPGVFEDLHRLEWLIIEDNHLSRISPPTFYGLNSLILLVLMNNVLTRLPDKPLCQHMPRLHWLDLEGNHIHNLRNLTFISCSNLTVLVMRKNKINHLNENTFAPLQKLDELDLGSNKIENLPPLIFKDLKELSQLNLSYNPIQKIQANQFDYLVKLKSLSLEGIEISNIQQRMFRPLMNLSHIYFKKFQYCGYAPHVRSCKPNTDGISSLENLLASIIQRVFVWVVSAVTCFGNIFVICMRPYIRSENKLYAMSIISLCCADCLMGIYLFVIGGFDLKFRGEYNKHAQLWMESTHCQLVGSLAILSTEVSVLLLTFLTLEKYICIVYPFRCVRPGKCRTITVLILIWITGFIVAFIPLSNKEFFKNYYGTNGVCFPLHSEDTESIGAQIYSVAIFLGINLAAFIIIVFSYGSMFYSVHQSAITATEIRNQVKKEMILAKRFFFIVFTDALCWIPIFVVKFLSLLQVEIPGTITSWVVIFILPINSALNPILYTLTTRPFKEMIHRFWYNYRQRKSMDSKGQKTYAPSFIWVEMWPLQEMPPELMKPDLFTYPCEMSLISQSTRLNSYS
The data set is described as follows: RXFP1 cyclic adenosine monophosphate (cAMP) assay, hRXFP1 HEK293. The settings on record: HEK293 cells stably expressing human RXFP1; 30 min at room temperature; HTRF cAMP. The format is cell-based. The gist of the method: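 HEK293 cells stably expressing human RXFP1 were exposed to compounds (0.010 nM–50 μM, 2% DMSO) for 30 min at room temperature in HBSS/HEPES buffer with 0.5 mM IBMX. Intracellular cAMP was measured by HTRF against a cAMP standard curve; EC50 from 4-parameter logistic fit.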
On the technique in general: Time-resolved FRET reads energy transfer from a long-lived donor to a nearby acceptor.
As a reminder, the EC50 is the midpoint of the concentration-response curve. A high value points to lower potency in that assay. `COc1ccc(C2=NOC3CN(C(=O)CO)CC23)cc1C(=O)Nc1cc2c(cc1C(=O)Nc1ccc(F)c(C(F)(F)F)c1)OC(F)(F)O2` (centres unmarked) [Example 44, 2,2-difluoro-N-(4-fluoro-3-(trifluoromethyl)phenyl)-6-(5-(5-(2-hydroxyacetyl)-3a,5,6,6a-tetrahydro-4H-pyrrolo[3,4-d]isoxazol-3-yl)-2-methoxybenzamido)benzo[d][1,3]dioxole-5-carboxamide]: it took 16 nM to reach a half-maximal effect (EC50). Still for that read-out and setting: the same measure for `COc1ccc(C2=NOC3C(O)CC(O)C23)cc1C(=O)Nc1cc2nc(C)sc2cc1C(=O)Nc1ccc(F)c(C(F)(F)F)c1` (centres unmarked) [Example 7, 5-(5-(4,6-dihydroxy-3a,5,6,6a-tetra-hydro-4H-cyclopenta[d]isoxazol-3-yl)-2-methoxy-benzamido)-N-(4-fluoro-3-(trifluorometh-yl)phenyl)-2-methylbenzo [d]thiazole-6-carboxamide]: 31 nM; for `COc1ccc(C2=NOC3CS(=O)(=O)CC23)cc1C(=O)Nc1cc2c(cc1C(=O)Nc1ccc(F)c(C(F)(F)F)c1)OC(F)(F)O2` (single isomer, unassigned) [Example 61, 6-(5-(5,5-dioxido-3a,4,6,6a-tetrahydrothieno[3,4-d]isoxazol-3-yl)-2-methoxybenzamido)-2,2-difluoro-N-(4-fluoro-3-(trifluoromethyl)phenyl) benzo[d][1,3]dioxole-5-carboxamide]: 17 nM.

Compound `CC(C)(C)NS(=O)(=O)c1ccc(F)c(-c2cc3c(c(C(=O)Nc4cc5c(cc4C(=O)Nc4ccc(F)c(C(F)(F)F)c4)OC(F)(F)O5)c2)OC(C)(C)C3)c1` [Example 101, 6-(5-(5-(N-(tert-butyl)sulfamoyl)-2-fluorophenyl)-2,2-dimethyl-2,3-dihydrobenzofuran-7-carboxamido)-2,2-difluoro-N-(4-fluoro-3-(trifluoromethyl)phenyl) benzo[d][1,3]dioxole-5-carboxamide] yielded a concentration for a half-maximal effect (EC50) of 9.8 nM. Consider `COc1ccc(C2=NOC3(COC(=O)C3)C2)cc1C(=O)Nc1cc2c(cc1C(=O)Nc1ccc(F)c(C(F)(F)F)c1)OC(F)(F)O2` (centres unmarked) [Example 78, 2,2-difluoro-N-(4-fluoro-3-(trifluoromethyl)phenyl)-6-(2-methoxy-5-(8-oxo-1,7-dioxa-2-azaspiro[4.4]non-2-en-3-yl)benzamido)benzo[d] [1,3]dioxole-5-carboxamide], for which the concentration for a half-maximal effect (EC50) was 262 nM. Still for that read-out and setting: as for `COc1ccc(-c2cncc(S(=O)(=O)NC(C)(C)C)c2)cc1C(=O)Nc1cc2c(cc1C(=O)Nc1ccc(F)c(C(F)(F)F)c1)OC(F)(F)O2` [Example 70, 6-(5-(5-(N-(tert-butyl)sulfamoyl)pyridin-3-yl)-2-methoxybenzamido)-2,2-difluoro-N-(4-fluoro-3-(trifluoromethyl)phenyl) benzo[d][1,3]dioxole-5-carboxamide], the figure is 132 nM; as for `COc1ccc(CN2CC3(C2)CS(=O)(=O)C3)cc1C(=O)Nc1cc2c(cc1C(=O)Nc1ccc(F)c(C(F)(F)F)c1)OC(F)(F)O2` [Example 88, 6-(5-((2,2-dioxido-2-thia-6-azaspiro[3.3]heptan-6-yl)methyl)-2-methoxybenzamido)-2,2-difluoro-N-(4-fluoro-3-(trifluoromethyl)phenyl) benzo[d][1,3]dioxole-5-carboxamide], 274 nM; as for `COc1ccc(C2CCCN(C3COC3)CC2)cc1C(=O)Nc1cc2c(cc1C(=O)Nc1ccc(F)c(C(F)(F)F)c1)OC(F)(F)O2` (centres unmarked) [Example 95, 2,2-difluoro-N-(4-fluoro-3-(trifluoromethyl)phenyl)-6-(2-methoxy-5-(1-(oxetan-3-yl)azepan-4-yl)benzamido)benzo[d] [1,3]dioxole-5-carboxamide], 862 nM. Still for that read-out and setting: the same measure for `COc1ccc(C2=NOC3CC(COP(=O)(O)O)CC23)cc1C(=O)Nc1cc2nc(C)sc2cc1C(=O)Nc1ccc(F)c(C(F)(F)F)c1` (centres unmarked) [Example 9, (3-(3-((6-((4-fluoro-3-(trifluorometh-yl)phenyl)car-bamoyl)-2-methylbenzo [d]thiazol-5-yl)carbamo-yl)-4-meth-oxyphenyl)-3a,5,6,6a-tetra-hydro-4H-cyclopenta[d]isoxazol-5-yl)methyldi-hydrogen phosphate]: 110 nM; for `COc1ccc(C2=NOC(C(C)(C)O)C2)cc1C(=O)Nc1cc2c(cc1C(=O)Nc1ccc(F)c(C(F)(F)F)c1)OC(F)(F)O2` (single isomer, unassigned) [Example 77, 2,2-difluoro-N-(4-fluoro-3-(trifluoromethyl)phenyl)-6-(5-(5-(2-hydroxypropan-2-yl)-4,5-dihydroisoxazol-3-yl)-2-methoxybenzamido) benzo[d][1,3]dioxole-5-carboxamide]: 487 nM; for `COc1ccc(C2=NOC3CC(O)CC23)cc1C(=O)Nc1cc2nc(C)sc2cc1C(=O)Nc1ccc(F)c(C(F)(F)F)c1` (single isomer, unassigned) [Example 23, N-(4-fluoro-3-(trifluorometh-yl)phenyl)-5-(5-(5-hydroxy-3a,5,6,6a-tetrahydro-4H-cyclopenta [d]isoxazol-3-yl)-2-methoxy-benzamido)-2-methylbenzo [d]thiazole-6-carboxamide]: 750 nM. On the same count and under the same terms, the same measure for `COc1ccc(-c2cnc3n2CCN(CC(N)=O)C3)cc1C(=O)Nc1cc2c(cc1C(=O)Nc1ccc(F)c(C(F)(F)F)c1)OC(F)(F)O2` [Example 82, 6-(5-(7-(2-amino-2-oxoethyl)-5,6,7,8-tetrahydroimidazo[1,2-a]pyrazin-3-yl)-2-methoxybenzamido)-2,2-difluoro-N-(4-fluoro-3-(trifluoromethyl)phenyl) benzo[d][1,3]dioxole-5-carboxamide]: 144 nM. The compound `O=C(Nc1cc2c(cc1C(=O)Nc1ccc(F)c(C(F)(F)F)c1)OC(F)(F)O2)c1csc(C2=NOC3COCC23)n1` (single isomer, unassigned) [Example 94, N-(2,2-difluoro-6-((4-fluoro-3-(trifluoromethyl)phenyl)carbamoyl)benzo[d][1,3]dioxol-5-yl)-2-(3a,4,6,6a-tetrahydrofuro[3,4-d]isoxazol-3-yl)thiazole-4-carboxamide] displayed a half-maximal effective concentration (EC50) of 1400 nM.
